Assay results as given in US10195196B2, “1,4-disubstituted pyridazine analogs there of and methods for treating SMN-deficiency-related conditions” (NOVARTIS AG, priority 2012, dated 2019).

Test system: SMN protein
Experiment: cellular SMN ELISA (SMN protein elevation)
Assay type: cell-based
Settings: ELISA condition 2: compound concentration 100 pM-10 uM, myoblast cell line from SMNdelta7 mouse model, 24 hours treatment; for SMN activity Fold: fold activation over DMSO control
Summary of the method: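 SMNdelta7 mouse-derived myoblasts were treated with compound for 24 h, then lysed. SMN protein was quantified by sandwich ELISA (HRP/TMB, 450 nm) and reported as fold over DMSO and EC50, over 20 nM–10 μM or 100 pM–10 μM depending on condition.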

Structure (SMILES)	EC50 [nM]	SMN activity Fold [Fold]
Cc1c[nH]c(-c2ccc(-c3ccc(N(C)C4CC(C)(C)NC(C)(C)C4)nn3)c(O)c2)n1 [Example 42-5, 2-(6-(methyl(2,2,6,6-tetramethylpiperidin-4-yl)amino)pyridazin-3-yl)-5-(4-methyl-1H-imidazol-2-yl)phenol]	202	3.22
CN(c1ccc(-c2ccc(-c3cn(C)cn3)cc2O)nn1)C1CC(C)(C)NC(C)(C)C1 [Example 42-6, 2-(6-(methyl(2,2,6,6-tetramethylpiperidin-4-yl)amino)pyridazin-3-yl)-5-(1-methyl-1H-imidazol-4-yl)phenol]	66	2.49
CN(c1ccc(-c2ccc(-c3cncn3C)cc2O)nn1)C1CC(C)(C)NC(C)(C)C1 [Example 42-7, 2-(6-(methyl(2,2,6,6-tetramethylpiperidin-4-yl)amino)pyridazin-3-yl)-5-(1-methyl-1H-imidazol-5-yl)phenol]	55	2.51
CN(c1ccc(-c2ccc(-c3nc([N+](=O)[O-])c[nH]3)cc2O)nn1)C1CC(C)(C)NC(C)(C)C1 [Example 42-8, 2-(6-(methyl(2,2,6,6-tetramethylpiperidin-4-yl)amino)pyridazin-3-yl)-5-(4-nitro-1H-imidazol-2-yl)phenol]	756	2.82
Cc1nc(-c2ccc(-c3ccc(N(C)C4CC(C)(C)NC(C)(C)C4)nn3)c(O)c2)c[nH]1 [Example 42-9, 2-(6-(methyl(2,2,6,6-tetramethylpiperidin-4-yl)amino)pyridazin-3-yl)-5-(2-methyl-1H-imidazol-4-yl)phenol]	15	2.85
Cc1nc(-c2ccc(-c3ccc(N(C)C4CC(C)(C)NC(C)(C)C4)nn3)c(O)c2)cn1C [Example 42-10, 5-(1,2-dimethyl-1H-imidazol-4-yl)-2-(6-(methyl(2,2,6,6-tetramethylpiperidin-4-yl)amino)pyridazin-3-yl)phenol]	57	3.10
CN(c1ccc(-c2ccc(-n3cc(C(N)=O)cn3)cc2O)nn1)C1CC(C)(C)NC(C)(C)C1 [Example 42-11, 1-(3-hydroxy-4-(6-(methyl(2,2,6,6-tetramethylpiperidin-4-yl)amino)pyridazin-3-yl)phenyl)-1H-pyrazole-4-carboxamide]	239	3.37
OCCN1C[C@@H]2CN(c3ccc(-c4ccc(-c5cn[nH]c5)cc4O)nn3)C[C@@H]2C1 [Example 43-1, 2-(6-((3aR,6aS)-5-(2-hydroxyethyl)hexahydropyrrolo[3,4-c]pyrrol-2(1H)-yl)pyridazin-3-yl)-5-(1H-pyrazol-4-yl)phenol]	40	3.04
CN1C[C@@H]2CN(c3ccc(-c4ccc(-c5cn[nH]c5)cc4O)nn3)C[C@@H]2C1 [Example 43-3, 2-(6-((3aR,6aS)-5-methylhexahydropyrrolo[3,4-c]pyrrol-2(1H)-yl)pyridazin-3-yl)-5-(1H-pyrazol-4-yl)phenol]	19	2.39
CN1C[C@@H]2CN(c3ccc(-c4ccc(-c5ccn(C)c(=O)c5)cc4O)nn3)C[C@@H]2C1 [Example 43-4, 4-(3-hydroxy-4-(6-(5-methylhexahydropyrrolo[3,4-c]pyrrol-2(1H)-yl)pyridazin-3-yl)phenyl)-1-methylpyridin-2(1H)-one]	41	2.94
CN1CC[C@@H]2CN(c3ccc(-c4ccc(-c5ccn(C)c(=O)c5)cc4O)nn3)C[C@@H]21 [Example 43-5, 4-(3-hydroxy-4-(6-((3aR,6aR)-1-methylhexahydropyrrolo[3,4-b]pyrrol-5(1H)-yl)pyridazin-3-yl)phenyl)-1-methylpyridin-2(1H)-one]	159	2.29
Cn1ccc(-c2ccc(-c3ccc(N4CCC5(CCCNC5)C4)nn3)c(O)c2)cc1=O (stereo not drawn) [Example 43-7, 4-(4-(6-(2,7-diazaspiro[4.5]decan-2-yl)pyridazin-3-yl)-3-hydroxyphenyl)-1-methylpyridin-2(1H)-one]	156	2.42
